# How the values were obtained:
# Assay type in all cases: in vivo
# Wild-type C57Bl/6J mice = assay: High fat diet induced liver steatosis in mice, Oil Red O staining of liver; settings: HFD 6 weeks; PRO20 27 ug/kg/d by subcutaneous osmotic pump for 4 weeks; HFD saline 17.57±3.23%, NFD 3.51±0.86%; N=4 mice/group
# Protocol: Non-alcoholic fatty liver steatohepatitis (NASH) represents a diverse array of liver damage linked to obesity, metabolic syndrome, and diabetes. The mechanisms and the treatment for NASH remains lacking. The inventors hypothesized that PRR antagonism using PRO20 prevents NASH development. FIG. 6 illustrates subcutaneous administration of PRR antagonist, PRO20, attenuates high fat diet induced-liver steatosis in mice. Wild-type C57Bl/6J mice were treated with either with either HFD (60% calories from fat) or normal fat chow (NFD, 10% calories from fat) with matching calories for 6 weeks. Two week following diet modification, HFD mice were implanted with subcutaneous osmotic pump containing either PRO20 (27 ug/kg/d) or saline for 4 weeks. Liver tissues were processed for Oil Red 0 staining for lipid accumulation and quantified using Image)/FIJI software. Data were presented % of ORO staining to the total area. N=4 mice/group. *p<0.01 vs. NFD; #P<0.05 vs. HFD Saline; One-way ANOVA. 6 weeks of HFD (17.57±3.23%) induced a significant elevation on liver ORO staining compared with the liver from mice fed with NFD (3.51±0.86%, p=0.005). […] FIG. 7 illustrates subcutaneous administration of PRR antagonist, PRO20, attenuates peroxisome proliferator-activated receptor gamma (PPARγ).
# [1] = test system: peroxisome proliferator-activated receptor gamma (PPARγ); assay: Liver PPARγ in high fat diet mice; settings: subcutaneous administration, high fat diet mice (FIG. 7)
# Text: FIG. 7 illustrates subcutaneous administration of PRR antagonist, PRO20, attenuates peroxisome proliferator-activated receptor gamma (PPARγ). […] PRO20 treatment prevents the upregulating of PPARγ in the liver supporting a mechanism for the beneficial role of PRO20 in preventing fatty liver development.
# Non-alcoholic fatty liver steatohepatitis (NASH) represents a diverse array of liver damage linked to obesity, metabolic syndrome, and diabetes. The mechanisms and the treatment for NASH remains lacking. The inventors hypothesized that PRR antagonism using PRO20 prevents NASH development. FIG. 6 illustrates subcutaneous administration of PRR antagonist, PRO20, attenuates high fat diet induced-liver steatosis in mice. Wild-type C57Bl/6J mice were treated with either with either HFD (60% calories from fat) or normal fat chow (NFD, 10% calories from fat) with matching calories for 6 weeks. Two week following diet modification, HFD mice were implanted with subcutaneous osmotic pump containing either PRO20 (27 ug/kg/d) or saline for 4 weeks. Liver tissues were processed for Oil Red 0 staining for lipid accumulation and quantified using Image)/FIJI software. Data were presented % of ORO staining to the total area. N=4 mice/group. *p<0.01 vs. NFD; #P<0.05 vs. HFD Saline; One-way ANOVA. […]
# [2] = test system: liver renin-angiotensin system; assay: Liver renin-angiotensin system activation induced by high fat diet; settings: subcutaneous administration, high fat diet mice (FIG. 8)
sequence,measurement,setting,value
LPTDTTTFKRIFLKRMPSI (Synthetic (pro)renin receptor agonist peptide) [PRO20],% of ORO staining to the total area (liver lipid accumulation),Wild-type C57Bl/6J mice,7.34±1.96%
same,Effect on liver PPARγ,[1],attenuates
same,Effect on liver renin-angiotensin system activation induced by high fat diet,[2],prevents activation
